Each structure is given as a SMILES string.

A short description of data set [1]: Cmax in Sprague-Dawley rat at 50 mg/kg, po measured after 24 hrs by LC-MS/MS analysis. Particulars: in vivo. It is filed as ADME, organism-based.
The nature of data set [2]: AUC (0 to infinity) in Sprague-Dawley rat at 50 mg/kg, po measured after 24 hrs by LC-MS/MS analysis. In kind it is ADME, organism-based. Particulars: in vivo.
A short description of data set [3]: Half-life in Sprague-Dawley rat at 50 mg/kg, po measured after 24 hrs by LC-MS/MS analysis. It is filed as ADME, organism-based. Particulars: in vivo.
A short description of data set [4]: Volume of distribution in Sprague-Dawley rat at 50 mg/kg, po measured after 24 hrs by LC-MS/MS analysis. It is filed as ADME, organism-based. Particulars: in vivo.
Data set [5] is described as follows: Oral bioavailability in Sprague-Dawley rat at 50 mg/kg measured after 24 hrs by LC-MS/MS analysis. Particulars: in vivo. In kind it is ADME, organism-based.
Data set [6] is described as follows: AUC (0 to infinity) in Sprague-Dawley rat at 5 mg/kg, iv measured after 24 hrs by LC-MS/MS analysis. In kind it is ADME, organism-based. Particulars: in vivo.
Data set [7] is described as follows: Half-life in Sprague-Dawley rat at 5 mg/kg, iv measured after 24 hrs by LC-MS/MS analysis. It is filed as ADME, organism-based. Particulars: in vivo.
A short description of data set [8]: Volume of distribution in Sprague-Dawley rat at 5 mg/kg, iv measured after 24 hrs by LC-MS/MS analysis. In kind it is ADME, organism-based. Particulars: in vivo.
The nature of data set [9]: Clearance in Sprague-Dawley rat at 5 mg/kg, iv measured after 24 hrs by LC-MS/MS analysis. In kind it is ADME, organism-based. Particulars: in vivo.
Data set [10] in a line: Clearance in Sprague-Dawley rat at 50 mg/kg, po measured after 24 hrs by LC-MS/MS analysis. In kind it is ADME, organism-based. Particulars: in vivo.
Data set [11] has as its target Na(+)/citrate cotransporter (Homo sapiens, UniProt Q86YT5). Kind of data set: Inhibition of human SLC13A5 transfected in HEK293T cells incubated for 30 mins by D4-citrate uptake assay. In kind it is cell-based.
Data set [12] in a line: Metabolic stability in human plasma assessed as compound remaining measured after 2 hrs by LC-MS/MS analysis. Particulars: read-out: Stability. In kind it is ADME, cell-free.
Data set [13] is described as follows: Metabolic stability in rat liver microsome assessed as compound remaining measured after 2 hrs in presence of NADPH by LC-MS/MS analysis. In kind it is ADME. Particulars: liver microsomes, read-out: Stability.
The nature of data set [14]: Metabolic stability in human liver microsome assessed as compound remaining measured after 2 hrs in presence of NADPH by LC-MS/MS analysis. In kind it is ADME. Particulars: microsomes. On the technique in general: Microsomes from liver hold many membrane-bound enzymes, among them those of drug oxidation.
Data set [15] is described as follows: Drug accumulation in Sprague-Dawley rat liver at 5 mg/kg, po measured after 2 hrs by LC-MS/MS analysis. It is filed as ADME, organism-based. Particulars: in vivo.
Data set [16] can be described thus: Drug accumulation in Sprague-Dawley rat prostate gland at 5 mg/kg, po measured after 2 hrs by LC-MS/MS analysis. In kind it is ADME, organism-based. Particulars: in vivo.
A short description of data set [17]: Drug accumulation in Sprague-Dawley rat brain at 5 mg/kg, po measured after 2 hrs by LC-MS/MS analysis. In kind it is ADME, organism-based. Particulars: in vivo.
Another data set relates to HepG2. As to the kind of experiment: Cytotoxicity against human HepG2 cells. In kind it is toxicity, cell-based.
The next data set has as its system Huh-7. Kind of data set: Cytotoxicity against human Huh-7 cells. In kind it is toxicity, cell-based.
For a further data set, the system named is HEK-293T. As to the kind of experiment: Cytotoxicity against HEK293T cells. It is filed as toxicity, cell-based. Particulars: human.
The nature of data set [18]: Tmax in Sprague-Dawley rat at 50 mg/kg, po measured after 24 hrs by LC-MS/MS analysis. It is filed as ADME, organism-based. Particulars: in vivo.
Data set [19] in a line: Toxicity in C57BL/6J mouse assessed as animal death at 100 mg/kg. Particulars: in vivo. In kind it is organism-based.
Data set [20] is described as follows: Acute toxicity in C57BL/6J mouse at 50 to 300 mg/kg measured after 7 days. It is filed as organism-based. Particulars: in vivo, 168 h, dose 50-300 mg/kg, time 7 day.

Chain of Na(+)/citrate cotransporter (Q86YT5 whole entry): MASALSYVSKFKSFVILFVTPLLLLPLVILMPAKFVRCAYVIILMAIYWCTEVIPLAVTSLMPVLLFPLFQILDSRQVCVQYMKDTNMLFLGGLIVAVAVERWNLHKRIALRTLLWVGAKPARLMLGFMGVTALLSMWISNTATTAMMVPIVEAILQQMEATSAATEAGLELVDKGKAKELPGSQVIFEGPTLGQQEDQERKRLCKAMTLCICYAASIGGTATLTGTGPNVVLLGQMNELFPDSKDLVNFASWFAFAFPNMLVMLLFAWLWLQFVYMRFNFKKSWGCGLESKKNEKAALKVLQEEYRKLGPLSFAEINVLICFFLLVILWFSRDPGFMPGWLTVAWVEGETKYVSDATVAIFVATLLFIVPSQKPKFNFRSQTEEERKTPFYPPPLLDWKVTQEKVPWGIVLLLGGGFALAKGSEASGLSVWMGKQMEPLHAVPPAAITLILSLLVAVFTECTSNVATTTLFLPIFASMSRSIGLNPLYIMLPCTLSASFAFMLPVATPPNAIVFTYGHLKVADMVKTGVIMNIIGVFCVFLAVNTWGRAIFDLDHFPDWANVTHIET

`CC(C)(C)c1ccc(CC[C@@](O)(CC(=O)O)C(=O)O)cc1` returned a Cmax in [1] of 1.36 µg/mL. The results for the area under the curve AUC(0-inf) in data set [2] and in [6] were 10600 ng·h/mL and 40400 ng·h/mL, respectively. The half-life in [3] was 12.4 h; in data set [7], 2.61 h. Further, the Vd in data set [4] came to 83.96 L/kg; in data set [8], 0.69 L/kg. In data set [5], this compound had a bioavailability of 1.83%. Besides, the clearance in data set [9] is 2 mL/min/kg. This compound also showed a CL/F in [10] of 80.8 mL/min/kg.

In data set [11], `O=C(O)CC(O)(CCc1ccc(-c2cccc3c2NCCC3)cc1)C(=O)O` (stereo unspecified) yielded a half-maximal inhibitory concentration (IC50) of 350 nM.

The compound `O=C(O)CC(O)(CCc1ccc(-c2cccc(C(F)(F)F)c2)cc1)C(=O)O` (stereo unspecified) returned an IC50 in data set [11] of 150 nM. Compared with the last compound, the IC50 is about 2.3-fold lower.

For `CCOc1cccc(-c2ccc(CCC(O)(CC(=O)O)C(=O)O)cc2)c1` (stereo unspecified), the half-inhibitory concentration (IC50) in data set [11] is 310 nM. This IC50 lies about 2.1-fold higher than the previous one.

`O=C(O)CC(O)(CCc1ccc(-c2ccn[nH]2)cc1)C(=O)O` (stereo unspecified) showed a concentration for half-maximal inhibition (IC50) in data set [11] of 1180 nM. Against the preceding compound, the IC50 is about 3.8-fold higher.

As to `O=C(O)CC(O)(CCc1ccc(-c2ccccc2)cc1)C(=O)O` (stereo unspecified), the 50% inhibitory concentration (IC50) in data set [11] is 67 nM. Besides, the remaining at 2 h in data set [12] and in [13] was greater than 60% throughout. Further, the Stability result in data set [14] is “Stable”. Also, the Drug uptake result is reported as “Active” in [15], “Active” in data set [16] and “Not Active” in data set [17]. Besides, the Activity result (in the data set on HepG2; in the data set with Huh-7; in the data set with HEK-293T; in [19]; in data set [20]) was “Non-Toxic” in each case. This compound also gave a Cmax in data set [1] of 288 µg/mL. The area under the curve AUC(0-inf) in [2] worked out at 705000 ng·h/mL; in data set [6] it was 145000 ng·h/mL. Also, the half-life was 1.09 h in data set [3] and 0.69 h in data set [7]. For the same compound, the Vd is 0.11 L/kg in [4] and 0.03 L/kg in data set [8]. Also, the bioavailability in [5] is 48.7%. Further, in [9], the clearance was 0.667 mL/min/kg. The CL/F in data set [10] is 1.17 mL/min/kg. Moreover, the Tmax in data set [18] was 0.76 h.

The compound `COc1ccccc1-c1ccc(CCC(O)(CC(=O)O)C(=O)O)cc1` (stereo unspecified) displayed a half-maximal inhibitory concentration (IC50) in [11] of 290 nM. This lies in the sub-micromolar range.

Consider `CC(C)Oc1cccc(-c2ccc(CCC(O)(CC(=O)O)C(=O)O)cc2)c1` (stereo unspecified), for which, in data set [11], the IC50 was determined as 440 nM.

In [11], `CCn1nccc1-c1ccc(CCC(O)(CC(=O)O)C(=O)O)cc1` (stereo unspecified) had a concentration for half-maximal inhibition (IC50) of 130 nM. Further, the remaining at 2 h in data set [12] and in data set [13] was greater than 60% throughout.

In data set [11], `COc1cccc(-c2ccc(CCC(O)(CC(=O)O)C(=O)O)cc2)c1` (stereo unspecified) displayed an IC50 of 340 nM.

With `O=C(O)CC(O)(CCc1ccc(-c2cccc(OC(F)(F)F)c2)cc1)C(=O)O` (stereo unspecified), half-maximal inhibition in data set [11] (IC50) was put at 190 nM.

For the compound `O=C(O)CC(O)(CCc1ccc(-c2ccccc2C(F)(F)F)cc1)C(=O)O` (stereo unspecified), half-maximal inhibition in [11] (IC50) required 210 nM.

Turning to `O=C(O)CC(O)(CCc1ccc2ccccc2c1)C(=O)O` (stereo unspecified), the IC50 in [11] stood at 73 nM. Further, the remaining at 2 h in data set [12] and in data set [13] was greater than 60% each time.

Turning to `COc1cc(-c2ccc(CCC(O)(CC(=O)O)C(=O)O)cc2)ccn1` (stereo unspecified), the half-maximal inhibitory concentration (IC50) in data set [11] was 860 nM. This counts as sub-micromolar.

Take `O=C(O)CC(O)(CCc1ccc(N2CCOCC2)cc1)C(=O)O` (stereo unspecified): the IC50 in [11] was determined as 860 nM.

In data set [11], `O=C(O)CC(O)(CCc1nc2ccccc2s1)C(=O)O` (stereo unspecified) yielded a concentration for half-maximal inhibition (IC50) of 160 nM. Also, the remaining at 2 h in [12] and in data set [13] was greater than 60% throughout.

Take `Cn1nccc1-c1ccc(CCC(O)(CC(=O)O)C(=O)O)cc1` (stereo unspecified): the 50% inhibitory concentration (IC50) in data set [11] was 1970 nM.

In data set [11], `O=C(O)CC(O)(CCc1ccc(-c2ccc3c(c2)OCO3)cc1)C(=O)O` (stereo unspecified) returned a half-maximal inhibitory concentration (IC50) of 110 nM.

In [11], `CCCOc1cccc(-c2ccc(CCC(O)(CC(=O)O)C(=O)O)cc2)c1` (stereo unspecified) yielded an IC50 of 270 nM. Compared with the last compound, the IC50 is about 2.5-fold higher.

For orientation: Cmax means the maximum level reached in the sampled fluid or tissue. The AUC(0-inf) is total exposure, with the tail of the curve extrapolated. As usually defined, the half-life is the time needed for the level to fall by half in the phase considered. Lower therefore signals fast loss. What is called bioavailability is the share of a dose that reaches the circulation, judged against a reference dose that is usually intravenous. Low values mean poor availability, high ones good availability. One may read the clearance as a measure of how efficiently the substance is removed, as volume per time. High values mean efficient removal, low ones inefficient removal. As usually defined, the CL/F is the apparent clearance, not corrected for the fraction that reaches the circulation. For orientation: IC50 means the concentration that gives 50% inhibition. A low value points to greater potency in that assay. In general, Tmax refers to the time at which the peak concentration occurs.
